Patent EP2242752B1, “[…] IMIDAZOLES AS HEPATITIS C VIRUS INHIBITORS” (Bristol-Myers Squibb Company, priority 2008, dated 2009)

Tested on: HCV 1b genotype
Experiment: HCV Replicon assay (HCV 16-377-neo replicon cells)
Assay type: cell-based
Settings: Hepatitis C virus; HCV 1b genotype replicon cells; read-out: EC50 ranges against HCV 1b
Experimental: An HCV Replion assay was utilized in the present disclosure, and was prepared, conducted and validated as described in commonly owned PCT/US2006/022197 and in O'Boyle et. al. Antimicrob Agents Chemother. 2005 Apr;49(4): 1346-53.
HCV 16-377-neo replicon cells were used to test the currently described compound series as well as cells resistant to compound A due to a Y2065H mutation in NS5A (described in application PCT/US2006/022197). The compounds tested were determined to have more than 10-fold less inhibitory activity on cells resistant to compound A than wild-type cells indicating a related mechanism of action between the two compound series. Thus, the compounds of the present disclosure can be effective to inhibit the function of the HCV NS5A protein and are understood to be as effective in combinations as previously described in application PCT/US2006/022197 and commonly owned WO/O4014852. Further, the compounds of the present disclosure can be effective against the HCV 1b genotype. It should also be understood that the compounds of the present disclosure can inhibit multiple genotypes of HCV. […] In one embodiment compounds of the present disclosure are active against the 1a, 1b, 2a, 2b, 3a, 4a, and 5a genotypes.

Structure (SMILES)	EC50 [nM]
COC(=O)N[C@@H](C)C(=O)N1CCC[C@H]1c1nc(-c2ccc(-c3ccc(-c4[nH]c([C@@H]5CCCN5C(=O)[C@H](C)NC(=O)OC)nc4CO)cc3)cc2)c[nH]1 [Example J14f.1, methyl ((1S)-2-((2S)-2-(4-(4'-(4-(hydroxymethyl)-2-((2S)-1-(N-(methoxycarbonyl)-L-alanyl)-2-pyrrolidinyl)-1H-imidazol-5-yl)-4-biphenylyl)-1H-imidazol-2-yl)-1-pyrrolidinyl)-1-methyl-2-oxoethyl)carbamate]	1 to 99
CCN(CC)[C@@H](C(=O)N1CCC[C@H]1c1nc(C)c(-c2ccc(-c3ccc(-c4[nH]c([C@@H]5CCCN5C(=O)[C@@H](c5ccccc5)N(CC)CC)nc4C)cc3)cc2)[nH]1)c1ccccc1 [Example E5h, (1R,1'R)-2,2'-(4,4'-biphenyldiylbis((4-methyl-1H-imidazole-5,2-diyl)(2S)-2,1-pyrrolidinediyl))bis (N,N-diethyl-2-oxo-1-phenylethanamine)]	0.001 to 0.999
COC(=O)NCC(=O)N1CC2(CC2)C[C@H]1c1nc(-c2ccc(-c3ccc(-c4c[nH]c([C@@H]5CC6(CC6)CN5C(=O)CNC(=O)OC)n4)cc3)cc2)c[nH]1 [Example M146, methyl (2-((6S)-6-(4-(4'-(2-((6S)-5-(((methoxycarbonyl)amino)acetyl)-5-azaspiro[2.4]hept-6-yl)-1H-imidazol-4-yl)-4-biphenylyl)-1H-imidazol-2-yl)-5-azaspiro[2.4]hept-5-yl)-2-oxoethyl)carbamate]	0.001 to 0.999
COC(=O)N[C@H](C(=O)N1CCC[C@H]1c1nc(-c2ccc(-c3ccc(-c4[nH]c([C@@H]5CCCN5C(=O)[C@@H](NC(=O)OC)C(C)C)nc4CO)cc3)cc2)c[nH]1)C(C)C [Example J14f, methyl ((1S)-1-(((2S)-2-(4-(hydroxymethyl)-5-(4'-(2-((2S)-1-((2S)-2-((methoxycarbonyl)amino)-3-methylbutanoyl)-2-pyrrolidinyl)-1H-imidazol-4-yl)-4-biphenylyl)-1H-imidazol-2-yl)-1-pyrrolidinyl)carbonyl)-2-methylpropyl)carba mate]	0.001 to 0.999
COC(=O)N[C@@H](C(=O)N1CC2(CC2)C[C@H]1c1nc(-c2ccc(-c3ccc(-c4c[nH]c([C@@H]5CC6(CC6)CN5C(=O)[C@H](NC(=O)OC)C(C)C)n4)cc3)cc2)c[nH]1)C(C)C [Example M149, methyl ((1R)-1-(((6S)-6-(4-(4'-(2-((6S)-5-((2R)-2-((methoxycarbonyl)amino)-3-methylbutanoyl)-5-azaspiro[2.4]hept-6-yl)-1H-imidazol-4-yl)-4-biphenylyl)-1H-imidazol-2-yl)-5-azaspiro[2.4]hept-5-yl)carbonyl)-2-methylpropyl)carbamate]	1 to 99
COC(=O)N[C@H](C(=O)N1CC2(CC2)C[C@H]1c1nc(-c2ccc(-c3ccc(-c4c[nH]c([C@@H]5CC6(CC6)CN5C(=O)[C@@H](NC(=O)OC)C(C)C)n4)cc3)cc2)c[nH]1)C(C)C [Example M145, methyl ((1S)-1-(((6S)-6-(4-(4'-(2-((6S)-5-((2S)-2-((methoxycarbonyl)amino)-3-methylbutanoyl)-5-azaspiro[2.4]hept-6-yl)-1H-imidazol-4-yl)-4-biphenylyl)-1H-imidazol-2-yl)-5-azaspiro[2.4]hept-5-yl)carbonyl)-2-methylpropyl)carbamate]	0.001 to 0.999
CCN(CC)[C@@H](C(=O)N1CCC[C@H]1c1nc(-c2ccc(-c3ccc(-c4nc([C@@H]5CCCN5C(=O)[C@@H](c5ccccc5)N(CC)CC)[nH]c4C)cc3)cc2)c[nH]1)c1ccccc1 [Example E5a, (1R)-2-((2S)-2-(4-(4'-(2-((2S)-1-((2R)-2-(diethylamino)-2-phenylacetyl)-2-pyrrolidinyl)-1H-imidazol-4-yl)-4-biphenylyl)-5-methyl-1H-imidazol-2-yl)-1-pyrrolidinyl)-N,N-diethyl-2-oxo-1-phenylethanamine]	0.001 to 0.999
CC(C)[C@@H](NC(=O)OC(C)(C)C)C(=O)N1[C@@H]2C[C@@H]2C[C@H]1c1nc(-c2ccc(-c3ccc(-c4c[nH]c([C@@H]5C[C@H]6C[C@H]6N5C(=O)[C@H](NC(=O)OC(C)(C)C)C(C)C)n4)cc3)cc2)c[nH]1 [Example M142, tert-butyl ((1R)-1-(((1R,3S,5R)-3-(4-(4'-(2-((1R,3S,5R)-2-((2R)-2-((tert-butoxycarbonyl)amino)-3-methylbutanoyl)-2-azabicyclo[3.1.0]hex-3-yl)-1H-imidazol-4-yl)-4-biphenylyl)-1H-imidazol-2-yl)-2-azabic yclo[3.1.0]hex-2-yl)carbonyl)-2-methylpropyl)carbamate]	1 to 99
COC(=O)NCC(=O)N1[C@@H](C)CC[C@H]1c1nc(-c2ccc(-c3ccc(-c4c[nH]c([C@@H]5CC[C@H](C)N5C(=O)CNC(=O)OC)n4)cc3)cc2)c[nH]1 [Example M155, methyl (2-((2S,5S)-2-(4-(4'-(2-((2S,5S)-1-(((methoxycarbonyl)amino)acetyl)-5-methyl-2-pyrrolidinyl)-1H-imidazol-4-yl)-4-biphenylyl)-1H-imidazol-2-yl)-5-methyl-1-pyrrolidinyl)-2-oxoethyl)carbamate]	1 to 99
CC[C@H](NC(=O)OC)C(=O)N1[C@@H](C)CC[C@H]1c1nc(-c2ccc(-c3ccc(-c4c[nH]c([C@@H]5CC[C@H](C)N5C(=O)[C@H](CC)NC(=O)OC)n4)cc3)cc2)c[nH]1 [Example M154, dimethyl (4,4'-biphenyldiylbis(1H-imidazole-4,2-diyl((2S,5S)-5-methyl-2,1-pyrrolidinediyl)((2S)-1-oxo-1,2-butanediyl)))biscarbamate]	0.001 to 0.999
COC(=O)N[C@@H](C(=O)N1[C@@H](C)CC[C@H]1c1nc(-c2ccc(-c3ccc(-c4c[nH]c([C@@H]5CC[C@H](C)N5C(=O)[C@H](NC(=O)OC)c5ccccc5)n4)cc3)cc2)c[nH]1)c1ccccc1 [Example M153, dimethyl (4,4'-biphenyldiylbis(1H-imidazole-4,2-diyl((2S,5S)-5-methyl-2,1-pyrrolidinediyl)((1R)-2-oxo-1-phenyl-2,1-ethanediyl)))biscarbamate]	0.001 to 0.999
COC(=O)N[C@H](C(=O)N1[C@@H]2C[C@@H]2C[C@H]1c1ncc(-c2ccc(-c3ccc(-c4cnc([C@@H]5C[C@H]6C[C@H]6N5C(=O)CCCC[C@@H]5SC[C@@H]6NC(=O)N[C@@H]65)[nH]4)cc3)cc2)[nH]1)C(C)C [Example M139]	0.001 to 0.999
CC(C)[C@H](O)C(=O)N1[C@@H](C)CC[C@H]1c1nc(-c2ccc(-c3ccc(-c4c[nH]c([C@@H]5CC[C@H](C)N5C(=O)[C@@H](O)C(C)C)n4)cc3)cc2)c[nH]1 [Example M161, (2S,2'S)-1,1'-(4,4'-biphenyldiylbis(1H-imidazole-4,2-diyl((2S,5S)-5-methyl-2,1-pyrrolidinediyl)))bis(3-methyl-1-oxo-2-butanol)]	1 to 99
COC(=O)N[C@H](C(=O)N1CCC[C@H]1c1nc(-c2ccc(-c3ccc(-c4[nH]c([C@@H]5CCCN5C(=O)[C@@H](NC(=O)OC)C(C)C)nc4CC4OCCCO4)cc3)cc2)c[nH]1)C(C)C [Example J14, methyl ((1S)-1-(((2S)-2-(4-(1,3-dioxan-2-ylmethyl)-5-(4'-(2-((2S)-1-((2S)-2-((methoxycarbonyl)amino)-3-methylbutanoyl)-2-pyrrolidinyl)-1H-imidazol-4-yl)-4-biphenylyl)-1H-imidazol-2-yl)-1-pyrrolidinyl)carbonyl)-2-methylpropyl)carba mate]	0.001 to 0.999
